Each structure is given as a SMILES string.

In one series the target is T1, CYP2D6 (Homo sapiens, UniProt P10635).
T1 construct: purchased Promega (Madison, WI, USA)
Put plainly: CYP2D6 P450-Glo luminescent inhibition assay. It is filed as in vitro ADME. Conditions: 0.01–25 μM. An excerpt: The luminescent CYP3A4 P450-Glo and CYP2D6 P450-Glo assays and protocols were provided by Promega (Madison, WI, USA). The P450-Glo systems based on the conversion proluciferins, derivatives of beetle luciferin [(4S)-4,5-dihydro-2-(6′-hydroxy-2′-benzothiazolyl)-4-thiazolecarboxylic acid] into D-luciferin were catalyzed by respective CYP isoform. D-Luciferin is formed and detected in a second reaction with the luciferin detection reagent (LDR). The amount of light produced in the second reaction is proportional to CYP activity.
The stock solutions (10 mM) of the references ketoconazole (KE), quinidine (QD), and examined compounds were performed in DMSO. The 4× concentrated dilutions were prepared before the assays. […]
The CYPs, proluciferin, and examined compounds (25 μL/well) were preincubated first for 5 min, and next the NADPH regeneration system was added (25 μL) to start the reaction. […] The control reactions for measuring the 100% of CYPs activity and minus-CYP negative control reactions for measure background luminescence were also prepared. […] Finally, LDR was added (50 μL/well), and after 20 min of incubation in room temperature the luminescence signal was measured with a microplate reader (EnSpire, PerkinElmer) in luminescence mode. […] The IC50 values and were calculated using GraphPad Prism 5 software.

For another series, the target named is T2, D3 dopamine receptor (Homo sapiens, UniProt P35462).
T2 construct: Eurofins Cerep (contract assay)
Put plainly: Eurofins Cerep off-target binding, % inhibition at 1 μM. How it is done: (§1) Additionally, the affinity of compound 27 at the adrenergic α1A, muscarinic M1, histaminergic H1, dopaminergic D3, serotoninergic 5-HT2C, 5-HT3 receptors, serotonin transporter (SERT), and the human ether-a-go-go-related gene (hERG) channel were evaluated in Eurofins Cerep.

The next series addresses T3, H1 histaminic receptor (Homo sapiens, UniProt P35367).
T3 construct: Eurofins Cerep (contract assay)
Described as above. How it is done:
as §1

Series [1] deals with T4, serotonin 5-HT2C receptor (Homo sapiens, UniProt P28335).
T4 construct: Eurofins Cerep (contract assay)
T4 sequence (P28335 33-458): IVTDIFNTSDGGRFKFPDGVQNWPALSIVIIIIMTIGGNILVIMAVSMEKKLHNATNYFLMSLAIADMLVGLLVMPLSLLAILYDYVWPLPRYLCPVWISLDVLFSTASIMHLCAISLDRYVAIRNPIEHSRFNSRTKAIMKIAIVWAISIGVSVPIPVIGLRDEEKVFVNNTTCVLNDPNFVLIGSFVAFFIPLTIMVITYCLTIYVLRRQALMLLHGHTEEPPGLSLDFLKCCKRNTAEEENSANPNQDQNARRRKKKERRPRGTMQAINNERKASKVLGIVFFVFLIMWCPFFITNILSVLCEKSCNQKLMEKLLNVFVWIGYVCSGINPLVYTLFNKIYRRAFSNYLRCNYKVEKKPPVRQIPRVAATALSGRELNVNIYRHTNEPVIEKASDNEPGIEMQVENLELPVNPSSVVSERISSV
The series is described as above. How it is done:
as §1

Another series deals with T5, α1A adrenoreceptor (Homo sapiens, UniProt P35348).
T5 construct: Eurofins Cerep (contract assay)
T5 sequence (P35348 1-466): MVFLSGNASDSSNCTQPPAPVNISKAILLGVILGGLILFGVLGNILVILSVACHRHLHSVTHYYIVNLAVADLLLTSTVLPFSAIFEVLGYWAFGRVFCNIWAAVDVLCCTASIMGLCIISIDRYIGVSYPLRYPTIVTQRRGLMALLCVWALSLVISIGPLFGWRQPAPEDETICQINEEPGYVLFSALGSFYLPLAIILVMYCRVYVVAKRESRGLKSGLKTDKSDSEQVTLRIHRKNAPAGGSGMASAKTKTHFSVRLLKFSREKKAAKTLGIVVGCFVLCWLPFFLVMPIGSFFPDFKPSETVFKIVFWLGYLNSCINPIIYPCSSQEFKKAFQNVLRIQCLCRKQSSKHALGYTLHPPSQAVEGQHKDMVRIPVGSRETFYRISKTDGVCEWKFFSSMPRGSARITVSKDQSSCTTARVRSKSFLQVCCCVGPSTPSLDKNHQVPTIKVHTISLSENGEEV
The series is described as above. Here is the method: as §1

Another series concerns HepG2 cells. Put plainly: LDH assay, hepatotoxicity in HepG2 cells. Format: cell-based, human. Conditions: HepG2, 24 h, 0.1–25 μM. How it is done:
Human hepatocellular carcinoma cells (HepG2) were cultured using standard procedures (protocol from ATCC). Cells were cultured in Eagle’s minimum essential medium (EMEM) in flasks with an area of 25 cm^2 (Falcon), supplemented with 10% of fetal bovine serum (FBS, Life Technologies) with the addition of 100 IU/mL penicillin (Sigma-Aldrich) and 100 μg/mL streptomycin (Sigma-Aldrich) and incubated at 37 °C in a humidified atmosphere with 5% CO2.
Cells were seeded at density 2 × 10^4 cells/per well in […] plates. After 24 h, compound 27 and reference standard DOX (highly cytotoxic agent) were added to final concentrations of 0.1–150 μM. After 24 h incubation, plates were centrifuged (200g, 2 min) and 50 μL of the supernatant was transferred into the corresponding 96-well plate. Subsequently, 50 μL of LDH-reaction mixture prepared according to the manufacturer’s instructions (Invitrogen) was added to each well. Incubation was conducted in darkness for 30 min at room temperature. Next, stop solution was added and absorbance was measured at 490 nm (A490) using a plate reader (Spectra Max iD3, Molecular Devices). Cytotoxicity was determined as follows: cytotoxicity (%) = [(compound LDH activity – spontaneous LDH activity)/(maximum LDH activity – spontaneous LDH activity)] × 100. The maximum LDH activity was prepared by treating cells with lysis buffer. […]

T1 sequence (P10635 whole entry): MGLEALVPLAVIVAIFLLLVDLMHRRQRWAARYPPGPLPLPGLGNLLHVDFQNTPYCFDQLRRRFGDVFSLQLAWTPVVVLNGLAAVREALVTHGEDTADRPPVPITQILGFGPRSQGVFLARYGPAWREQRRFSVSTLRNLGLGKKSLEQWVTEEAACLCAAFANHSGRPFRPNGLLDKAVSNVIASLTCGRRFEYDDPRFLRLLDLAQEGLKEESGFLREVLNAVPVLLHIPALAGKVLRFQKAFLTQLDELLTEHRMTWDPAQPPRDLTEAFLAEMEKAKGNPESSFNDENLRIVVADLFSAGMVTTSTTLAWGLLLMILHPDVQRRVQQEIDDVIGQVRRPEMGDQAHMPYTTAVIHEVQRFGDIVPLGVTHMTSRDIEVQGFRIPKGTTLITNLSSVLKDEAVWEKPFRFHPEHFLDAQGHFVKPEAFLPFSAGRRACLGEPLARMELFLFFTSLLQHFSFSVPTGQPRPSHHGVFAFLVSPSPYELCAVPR
T3 sequence (P35367 whole entry): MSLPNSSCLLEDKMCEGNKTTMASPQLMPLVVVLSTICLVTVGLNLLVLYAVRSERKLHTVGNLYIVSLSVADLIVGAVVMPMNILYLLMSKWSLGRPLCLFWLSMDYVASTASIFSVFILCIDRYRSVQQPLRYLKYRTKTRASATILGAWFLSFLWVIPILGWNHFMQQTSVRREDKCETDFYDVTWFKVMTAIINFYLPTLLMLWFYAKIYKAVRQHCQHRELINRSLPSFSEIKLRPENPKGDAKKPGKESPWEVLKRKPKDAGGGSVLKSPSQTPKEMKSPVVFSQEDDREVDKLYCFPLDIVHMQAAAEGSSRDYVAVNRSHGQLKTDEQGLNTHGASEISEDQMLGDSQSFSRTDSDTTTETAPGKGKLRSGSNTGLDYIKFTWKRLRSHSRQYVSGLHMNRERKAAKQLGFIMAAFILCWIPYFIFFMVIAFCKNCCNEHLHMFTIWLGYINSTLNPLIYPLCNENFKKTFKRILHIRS
T2 sequence (P35462 whole entry): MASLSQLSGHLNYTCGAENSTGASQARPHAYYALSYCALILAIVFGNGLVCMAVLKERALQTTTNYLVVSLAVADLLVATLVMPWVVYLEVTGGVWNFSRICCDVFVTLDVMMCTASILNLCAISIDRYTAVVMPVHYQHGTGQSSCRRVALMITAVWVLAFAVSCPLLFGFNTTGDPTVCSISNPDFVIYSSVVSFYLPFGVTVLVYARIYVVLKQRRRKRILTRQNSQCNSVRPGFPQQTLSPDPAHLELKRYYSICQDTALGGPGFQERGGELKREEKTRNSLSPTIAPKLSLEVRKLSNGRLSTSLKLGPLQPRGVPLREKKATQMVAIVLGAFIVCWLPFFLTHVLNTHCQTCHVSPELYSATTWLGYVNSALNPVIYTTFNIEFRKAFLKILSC

As usually defined, the inhibition is the percentage by which the read-out fell short of the control. In the case of `O=C(N[C@@H]1CCNC1)c1ccn(S(=O)(=O)c2cccc(Cl)c2)c1-c1ccc(F)cc1` [Compound 27, (R)-2-(4-Fluorophenyl)-1-[(3-chlorophenyl)sulfonyl]-N-(pyrrolidin-3-yl)-1H-pyrrole-3-carboxamide], on CYP2D6, the “influence on CYP2D6 activity” value is “did not significantly influence”. In addition, the inhibition at 1 µM was found to be 17% at D3 dopamine receptor, 9% on H1 histaminic receptor, 10% in series [1] and 15% on α1A adrenoreceptor. The “cell membrane integrity (LDH test)” value with HepG2 cells was “did not affect the cell membrane integrity”.

These data come from publication PMC8041276 (ACS Chemical Neuroscience, 2021).
